{"source": "patent US6130229A", "about": "“Tricyclic compounds having activity as RAS-FPT inhibitors” (Schering Corporation, priority 1997, dated 2000)"}
{"biological_target": "farnesyl protein transferase", "test": "Inhibition of farnesyl protein transferase (test of WO 95/10514)", "format": "biochemical", "conditions": "percent inhibition relative to DMSO vehicle control, IC50 estimated", "text": "The compounds of the invention can be tested by standard methods, for example by those published in published PCT application WO 95/10514 published Apr. 20, 1995 (starting at page 61), the disclosure of which is hereby incorporated herein by reference. Particularly relevant assays and studies include In vitro enzyme assays, Cell-Based Assays, Cell Mat Assays, and In Vivo Anti-Tumor Studies.\nSuch Assays and Studies indicate that compounds of the Formula I above are selective inhibitors of Ras-FPT and can be used as anti-tumor agents. The following Table presents IC50 values obtained in the test for Inhibition of farnesyl protein transferase, reported in published PCT application WO 95/10514. Percent inhibition was calculated relative to the DMSO vehicle control, and an IC50 value was estimated.", "units": {"IC50": "µM"}}
{"molecule": "N#CN=C(NCc1ccc2c(c1)OCO2)N1CCN(C2c3ccc(Cl)cc3SCc3cccnc32)CC1", "note": "(stereo not shown) [Example 20A, N-[(1,3-Benzodioxol-5-yl)methyl]-4-(8-chloro-5,11-dihydro[1]benzothiepino[4,3-b]pyridin-11-yl)-N'-cyano-1-piperazine-carboximidamide]", "IC50": "> 0.37"}
{"molecule": "O=C(CC1CCNCC1)N1CCC(=C2c3ccc(Cl)cc3SCc3cccnc32)CC1", "note": "[Example 12B, 4-(8-Chloro-5,11-dihydro-[1]benzothiepino[4,3-b]pyridin-11-ylidene)-1-(4-pipeeridine-acetyl)piperidine]", "IC50": 0.59}
{"molecule": "CSC(=NC#N)N1CCN(C2c3ccc(Cl)cc3N(C)Cc3cccnc32)CC1", "note": "(stereo not shown) [Example 36, Methyl 4-(8-chloro-6,11-dihydro-6-methyl-5H-pyrido[3,2-c][1]benzazepin-11-yl)-N-cyano-1-piperazinecarboximidothioate]", "IC50": 1.1}
{"molecule": "CN1CCC(CC(=O)N2CCN(C3c4ccc(Cl)cc4SCc4cccnc43)CC2)CC1", "note": "(stereo not shown) [Example 10, 4-(8-Chloro-5,11-dihydro-[1]benzothiepino[4,3-b]pyridin-11-yl)-1-(1-methyl-4-piperidine-acetyl)piperazine]", "IC50": 2.1}
{"molecule": "O=C(CC1CCNCC1)N1CCN(C2c3ccc(Cl)cc3SCc3cccnc32)CC1", "note": "(stereo not shown) [Example 12A, 4-(8-Chloro-5,11-dihydro-[1]benzothiepino[4,3-b]pyridin-11-yl)-1-(4-piperidinyl-acetyl)piperazine]", "IC50": 1.1}
{"molecule": "N#CN=C(NCc1ccc2c(c1)OCO2)N1CCC(=C2c3ccc(Cl)cc3SCc3cccnc32)CC1", "note": "[Example 20B]", "IC50": "> 0.113"}
{"molecule": "CSC(=NC#N)N1CCN(C2c3ccc(Cl)cc3SCc3cccnc32)CC1", "note": "(stereo not shown) [Example 18, Methyl 4-(8-chloro-5,11-dihydro-[1]benzothiepino[4,3-b]pyridin-11-yl)-N-cyano-1-piperazinecarboximidothioate]", "IC50": 0.3}
{"molecule": "4-(8-Chloro-5,11-dihydro-[1]benzothiepinof4,3-b]pyridin-11-yl)-1-(4-pyridine-acetyl)piperazine N1,6,6-trioxide [Example 17B]", "IC50": "> 1.2"}
{"molecule": "CSC(=NC#N)N1CCC(=C2c3ccc(Cl)cc3OCc3cccnc32)CC1", "note": "[Example 2]", "IC50": "> 0.14"}
{"molecule": "CC(C)(C)OC(=O)N1CCC(CC(=O)N2CCC(=C3c4ccc(Cl)cc4SCc4cccnc43)CC2)CC1", "note": "[Example 11B, 1,1 -Dimethylethyl 4-[2-[4-(8-chloro-5,11-dihydro-[1]benzothiepino[4,3-b]pyridin-11-ylidene)-1-piperidinyl]2-oxoethyl]-1-piperidine-carboxylate]", "IC50": 3.2}
{"molecule": "NC(=O)N1CCC(CC(=O)N2CCN(C3c4ccc(Cl)cc4[S+]([O-])Cc4cccnc43)CC2)CC1", "note": "(stereo not shown) [Example 32, 4-[2-[4-(8-Chloro-5,11-dihydro-[1]benzothiepino[4,3-b]pyridin-11-yl)-1-piperazinyl]-2-oxoethyl]-1-piperidinecarboxamide 6-oxide]", "IC50": "> 0.38"}
{"molecule": "O=C(Cc1cc[n+]([O-])cc1)N1CCC(=C2c3ccc(Cl)cc3SCc3cccnc32)CC1", "note": "[Example 9B, 4-(8-Chloro-5,11-dihydro-[1]benzothiepino[4,3-b]pyridin-11-ylidene)-1-(4-pyridine-acetyl)piperidine N1-oxide]", "IC50": 0.52}
{"molecule": "O=C(Cc1cc[n+]([O-])cc1)N1CCN(C2c3ccc(Cl)cc3S(=O)(=O)Cc3cccnc32)CC1", "note": "(stereo not shown) [Example 17A (sulfone), 4-(8-Chloro-5,11-dihydro-[1]benzothiepino[4,3-b]pyridin-11-yl)-1-(4-pyridine-acetyl)piperazine N1,6,6-trioxide]", "IC50": 3.4}
